In the experiment the test system is carrageenan-induced paw edema. The experiment is described as follows: Carrageenan-induced paw edema (CPE) model. Format: in vivo, rat. The following applies: rat; for ED50: oral gavage 2 h before carrageenan, 3 h after injection, mean of 5. An excerpt:
Carrageenans are a group of polysaccharides which can induce an acute inflammatory response in animals. Cardinal signs of inflammation including edema, hyperalgesia and erythema are developed in the injection site immediately following injection. The CPE model (Winter et al., Proc. Soc. Exp. Biol. Med. 111, 544-547, 1962) is a recognized model of inflammation and can be used to evaluate the antinflammatory effects of glucocorticoid receptor ligands.
To evaluate the anti-inflammatory effects of Compound (I), the Compound (I) is formulated in a vehicle comprising 0.5% carboxymethyl cellulose and 0.25% Tween 80 then administered orally via gavage to male Sprague-Dawley rats (180-200 g) (Harlan Industries, Indianapolis, Ind.). For comparison, prednisolone is administered orally in the same vehicle. Two hours later, 1% carrageenan in 50 μL of 0.9% pyrogen free saline is injected into the subplantar regions of the right hind paw. Rats are euthanized by CO2 at 3 hours after the carrageenan injection. Paws are removed then weighed using a microbalance. Paws are then immediately immersed into liquid nitrogen until frozen. Frozen paws are dissected by making several cuts on the paw surface then centrifuged to extract the exudates. Exudate levels of IL-1β, a cytokine generated during the inflammatory response, is then measured by ELISA (R&D Systems, Inc., Catalog No. RLB00) using standard techniques. Total paw protein is also measured using a protein assay kit (Pierce Biotechnology, Inc., Rockford, Ill., U.S.A., Catalog No. 1856210) and the absolute level of IL-1β is normalized to yield a concentration value of ng IL-1β/mg total protein.
A general note: The carrageenan paw model is a standard test of acute inflammation.

Like-named read-outs stand apart in the source and are kept apart here.

Experimental findings from patent US8101760B2, “Glucocorticoid receptor modulator and methods of use” (Eli Lilly and Company, priority 2007, dated 2012) are described below.

In general, ED50 refers to the dose at which the effect has come halfway, by size or by number of responders. Turning to `CC/C(=C1\c2ccc(Cl)cc2OCc2ncccc21)c1cccc(NS(C)(=O)=O)c1` [Compound (I), (E)-N-{3-[1-(8-Chloro-11H-10-oxa-1-aza-dibenzo[a,d]cyclohepten-5-ylidene)-propyl]-phenyl}-methanesulfonamide], under “oral administration, in words”, the “inhibition of carrageenan induced paw edema” value is “dose dependently inhibits” and the “production of interleukin-1-beta (IL-1β)” value is on record as “inhibits production”. Also, the ED50 (read-out: ED50, inhibition of carrageenan induced paw weight gain) was about 1.2 mg/kg. Besides, the ED50 (read-out: ED50, reduction of paw exudate levels of IL-1β) was about 0.31 mg/kg.
